In patent US20080096846A1, “Arene Ruthenium (ll) Compounds And Their Use In Cancer Therapy” (priority 2004, published 2008):

Key:
[1] = Hydrolysis kinetic studies by UV-Vis spectroscopy; assay type: physicochemical; design: key: —: no hydrolysis observed by UV-VIS; details: 298 K, methanol stock diluted with water
Description: Ultraviolet and Visible (UV-Vis) Spectroscopy: A Perkin-Elmer Lambda-16 UV-Vis spectrophotometer was used with 1-cm path-length quartz cuvettes (0.5 mL) and a PTP1 Peltier temperature controller. Spectra were processed using UVWinlab software for Windows' 95.
Kinetic Studies: Aliquots of stock solutions of the complexes to be tested (4-10 mM) in methanol were diluted to 500 μL with water, and the absorbance at selected wavelengths (determined by hydrolysis in an 19:1 mixture of water and methanol—see table 1 (λ)) was then recorded at 6 to 20 second intervals depending on the hydrolysis rate of each complex at 298 K. The hydrolysis rate constant kH2O for each complex was determined by computer fit of the absorbance/time data for each complex to the first-order rate equation (eq. 1), A=C0+C1e^−kt (1) where C0 and C1 are computer-fitted constants, and A is the absorbance corresponding to time t, and the results are reported in table 1 as the half life (t1/2). Cytoxicity Studies

[2] = test system: A2780 cells; assay: Cytotoxicity A2780 (1st method), cell counting; assay type: cell-based, human; details: 24 h cell exposure, cells counted on day 7
Description: A2780 (1st Method): A2780 cells were plated on day zero, and the complexes to be tested were added on day 3. The complex was removed on day 4 (i.e., 24 h cell exposure), and after growth in fresh medium in the absence of drug, the cells were counted on day 7. The complexes were stored in the dark at 277 K as a precaution against photochemical decomposition.

[3] = test system: A2780 (human ovarian carcinoma, ECACC 93112519); assay: Cytotoxicity A2780 (2nd method), sulforhodamine B; assay type: cell-based; details: 24 h exposure, then 96 h in fresh medium, SRB
Description: A2780 (2nd method) and A549: Cell line A2780 (human ovarian carcinoma, ECACC 93112519) was maintained in medium comprising RPMI-1640 (Sigma) with 5% Fetal Bovine Serum (Invitrogen), 2 mM L-Glutamine (Sigma) and 1% Penicillin/Streptomycin (Invitrogen), in T-75 flasks (Costar). Cells were passaged at approximately 75-90% confluence (1:8 dilution) using 0.25% Trypsin/EDTA (Invitrogen)
(§1) Both cell lines were incubated at 37° C., 5% CO2, in high humidity.
(§2) A2780 carcinoma cells were seeded (150 μL) into 96 well plates (Nunc Maxisorp) at 5000 (±10%) cells per well and incubated at 37° C., 5% CO2 in high humidity for 48 hours. A549 carcinoma cells were seeded (150 μL) into 96 well plates (Nunc Maxisorp) at 2000 (±10%) cells per well and incubated at 37° C., 5% CO2 in high humidity for 24 hours.
(§3) The compounds to be tested were solubilised by sonication in DMSO (Fisher Scientific) to provide 20 mM solutions. Compounds were serially diluted with DMSO before diluting in cell culture medium to give concentrations four-fold greater than the final concentrations required in the assay. The dilutions of compound in culture medium were added to the cell plates (50 μL) in triplicates to achieve final concentrations of 100 μM, 50 μM, 10 μM, 5 μM, 1 μM and 0.1 μM. The final DMSO concentration in each well was 0.5% (v/v). The plates were incubated for 24 hours at 37° C., 5% CO2, in high humidity
After 24 hours incubation, the cells were washed (200 μL) twice with sterile phosphate buffered Saline (Sigma) and the cell culture medium replenished (200 μL). Plates were incubated at 37° C., 5% CO2, in high humidity for 96 hours. After the incubation surviving cells were fixed by the addition of 50% (w/v) Trichloroacetic acid (50 μL) and incubated at 4° C. for 1 hour. Plates were washed three times with excess tap water and air-dried. Cells were dyed by the addition of (100 μL) 0.4% sulforhodamine B (Sigma) solution to the plates followed by five washes (200 μl) with 1% acetic acid solution to remove excess dye before air-drying. Dye was re-solubilised in (200 μL) 10 mM Tris buffer (Fisher Scientific) and the absorbance of each well read at both 565 nm and 690 nm using a BMG Fluorostar microplate reader. The reading at 690 nm was subtracted from the 565 nm reading, and the IC50 values determined by plotting the corrected absorbance value Vs. the compound concentration in the wells (XLfit version 4.0, ID Business Solutions Ltd). These are shown below in table 1

[4] = test system: A549 (human lung carcinoma, ECACC 86012804); assay: Cytotoxicity A549, sulforhodamine B; assay type: cell-based; details: 24 h exposure, then 96 h in fresh medium, SRB
Description: Cell Line A549 (human lung carcinoma, ECACC 86012804) was maintained in medium comprising DMEM (Sigma) with 10% Fetal Bovine Serum (Invitrogen), 2 mM L-Glutamine (Invitrogen) and 1% Penicillin/Streptomycin (Invitrogen), in T-75 flasks (Costar). Cells were passaged at approximately 70-90% confluence (1:8 dilution) using 0.25% Trypsin/EDTA (Invitrogen).
as §1, §2, §3
After 24 hours incubation, the cells were washed (200 μL) twice with sterile phosphate buffered Saline (Sigma) and the cell culture medium replenished (200 μL). Plates were incubated at 37° C., 5% CO2, in high humidity for 96 hours. […] Dye was re-solubilised in (200 μL) 10 mM Tris buffer (Fisher Scientific) and the absorbance of each well read at both 565 nm and 690 nm using a BMG Fluorostar microplate reader. The reading at 690 nm was subtracted from the 565 nm reading, and the IC50 values determined by plotting the corrected absorbance value Vs. the compound concentration in the wells (XLfit version 4.0, ID Business Solutions Ltd). […]

Row | Molecule | t1/2 (hydrolysis), dash with footnote a [1] | IC50 [2] [µM] | IC50 [3] [µM] | IC50 [4] [µM]
1 | [(η^6-C6(CH3)6)Ru(en)(3-methylpyridine)][PF6]2 [Compound 9] | —^a | 50 | 50 | 
2 | [(η^6-C6(CH3)6)Ru(en)(SPh)][PF6] [Compound 4] | —^a | 23 | 23 | 38
3 | [(η^6-C6(CH3)6)Ru(en)(SCN)][PF6]2 [Compound 3] |  |  | 24 | 
4 | [(η^6-C6(CH3)6)Ru(en)(pyridine)][PF6]2 [Compound 2] | —^a |  |  | 
5 | F[P-](F)(F)(F)(F)F.NCCN.[Cl][Ru+].c1ccc(-c2ccccc2)cc1 [Compound C1, [(η^6-C6H5C6H5)Ru(en)Cl][PF6], reference compound] |  | 8 | 6.5 | 11
6 | Cc1c(C)c(C)c(C)c(C)c1C.F[P-](F)(F)(F)(F)F.NCCN.[Cl][Ru+] [Compound C2, [(η^6-C6(CH3)6)Ru(en)Cl][PF6], reference compound] |  | 9 |  | 
7 | [(η^6-C6(CH3)6)Ru(en)(p-cyanopyridine)][PF6]2 [Compound 8] |  | 6 |  | 
8 | [(η^6-C6(CH3)6)Ru(en)(3,5-dichloropyridine)][PF6]2 [Compound 6] |  | 23 | 18 | 
9 | [(η^6-C6H5C6H5)Ru(en)N3][PF6] [Compound 1] |  | 4 | 14 | 8.5
